Assay results: publication PMC3853718 (Journal of Translational Medicine, 2013)

Tested on: subjects with advanced malignancies
Assay: Phase 1 dose escalation: toxicity, safety and tolerability (DLT, MAD, RP2D, AEs)
[1] = Dose level 0.33 mg/m^2, 1 subject
[2] = Dose level 0.66 mg/m^2, 1 subject
[3] = Dose level 1.32 mg/m^2, 1 subject
[4] = Dose level 2.59 mg/m^2, 4 subjects
[5] = Dose level 3.63 mg/m^2, 8 subjects
[6] = Dose level 5.08 mg/m^2, 3 subjects
[7] = Dose level 7.11 mg/m^2, 7 subjects
[8] = Dose level 10 mg/m^2, 3 subjects
[9] = Dose level 12 mg/m^2, 11 subjects

Q: How did the “TEAE: Abdominal distension” value (14 mg/m^2 (n = 5), Grade 3–4) turn out when CCc1cnn2c(NCc3ccc[n+]([O-])c3)cc(N3CCCC[C@H]3CCO)nc12 [dinaciclib] was run?
A: 0 n (%)

Q: And the “TEAE: Abdominal pain” value (14 mg/m^2 (n = 5), Grade 3–4)?
A: 0 n (%)

Q: What about the “TEAE: Anemia” value (14 mg/m^2 (n = 5), Grade 3–4) of the same compound?
A: 1 (20) n (%)

Q: And the “TEAE: Asthenia” value (14 mg/m^2 (n = 5), Grade 3–4)?
A: 1 (20) n (%)

Q: And the “TEAE: Back pain” value (14 mg/m^2 (n = 5), Grade 3–4)?
A: 0 n (%)

Q: What about the “TEAE: Constipation” value (14 mg/m^2 (n = 5), Grade 3–4) of the same compound?
A: 0 n (%)

Q: And the “TEAE: Cough” value (14 mg/m^2 (n = 5), Grade 3–4)?
A: 0 n (%)

Q: And the “TEAE: Decreased appetite” value (14 mg/m^2 (n = 5), Grade 3–4)?
A: 0 n (%)

Q: What about the “TEAE: Dehydration” value (14 mg/m^2 (n = 5), Grade 3–4) of the same compound?
A: 0 n (%)

Q: What about the “TEAE: Diarrhea” value (14 mg/m^2 (n = 5), Grade 3–4) of the same compound?
A: 0 n (%)

Q: And the “TEAE: Dizziness” value (14 mg/m^2 (n = 5), Grade 3–4)?
A: 1 (20) n (%)

Q: And the “TEAE: Dyspnea” value (14 mg/m^2 (n = 5), Grade 3–4)?
A: 1 (20) n (%)

Q: What about the “TEAE: Fatigue” value (14 mg/m^2 (n = 5), Grade 3–4) of the same compound?
A: 0 n (%)

Q: And the “TEAE: Flatulence” value (14 mg/m^2 (n = 5), Grade 3–4)?
A: 0 n (%)

Q: And the “TEAE: Hyperbilirubinemia” value (14 mg/m^2 (n = 5), Grade 3–4)?
A: 1 (20) n (%)

Q: What about the “TEAE: Hyperglycemia” value (14 mg/m^2 (n = 5), Grade 3–4) of the same compound?
A: 1 (20) n (%)

Q: What about the “TEAE: Hyperuricemia” value (14 mg/m^2 (n = 5), Grade 3–4) of the same compound?
A: 1 (20) n (%)

Q: What about the “TEAE: Hypokalemia” value (14 mg/m^2 (n = 5), Grade 3–4) of the same compound?
A: 0 n (%)

Q: What about the “TEAE: Hypophosphatemia” value (14 mg/m^2 (n = 5), Grade 3–4) of the same compound?
A: 0 n (%)

Q: What about the “TEAE: Increased ALP” value (14 mg/m^2 (n = 5), Grade 3–4) of the same compound?
A: 1 (20) n (%)

Q: What about the “TEAE: Increased ALT” value (14 mg/m^2 (n = 5), Grade 3–4) of the same compound?
A: 0 n (%)

Q: And the “TEAE: Increased AST” value (14 mg/m^2 (n = 5), Grade 3–4)?
A: 0 n (%)

Q: What about the “TEAE: Nausea” value (14 mg/m^2 (n = 5), Grade 3–4) of the same compound?
A: 1 (20) n (%)

Q: And the “TEAE: Neutropenia” value (14 mg/m^2 (n = 5), Grade 3–4)?
A: 2 (40) n (%)

Q: What about the “TEAE: Peripheral edema” value (14 mg/m^2 (n = 5), Grade 3–4) of the same compound?
A: 0 n (%)

Q: What about the “TEAE: Pyrexia” value (14 mg/m^2 (n = 5), Grade 3–4) of the same compound?
A: 0 n (%)

Q: And the “TEAE: Subjects with any AE” value (14 mg/m^2 (n = 5), Grade 3–4)?
A: 5 (100) n (%)

Q: What about the “TEAE: Urinary tract infection” value (14 mg/m^2 (n = 5), Grade 3–4) of the same compound?
A: 0 n (%)

Q: And the “TEAE: Vomiting” value (14 mg/m^2 (n = 5), Grade 3–4)?
A: 1 (20) n (%)

Q: And the “TEAE: Weight decreased” value (14 mg/m^2 (n = 5), Grade 3–4)?
A: 0 n (%)

Q: What about the “maximum administered dose (MAD)” value (2-hour IV infusion on days 1, 8, 15 of a 28-day cycle) of the same compound?
A: 14 mg/m^2

Q: And the “TEAE: Abdominal distension” value (All doses (N = 48), All grades)?
A: 5 (10) n (%)

Q: What about the “TEAE: Abdominal pain” value (All doses (N = 48), All grades) of the same compound?
A: 8 (17) n (%)

Q: What about the “TEAE: Anemia” value (All doses (N = 48), All grades) of the same compound?
A: 19 (40) n (%)

Q: And the “TEAE: Asthenia” value (All doses (N = 48), All grades)?
A: 11 (23) n (%)

Q: And the “TEAE: Back pain” value (All doses (N = 48), All grades)?
A: 11 (23) n (%)

Q: What about the “TEAE: Constipation” value (All doses (N = 48), All grades) of the same compound?
A: 11 (23) n (%)

Q: What about the “TEAE: Cough” value (All doses (N = 48), All grades) of the same compound?
A: 5 (10) n (%)

Q: And the “TEAE: Decreased appetite” value (All doses (N = 48), All grades)?
A: 14 (29) n (%)

Q: And the “TEAE: Diarrhea” value (All doses (N = 48), All grades)?
A: 6 (13) n (%)

Q: And the “TEAE: Dizziness” value (All doses (N = 48), All grades)?
A: 5 (10) n (%)

Q: What about the “TEAE: Dyspnea” value (All doses (N = 48), All grades) of the same compound?
A: 7 (15) n (%)

Q: And the “TEAE: Fatigue” value (All doses (N = 48), All grades)?
A: 14 (29) n (%)

Q: And the “TEAE: Flatulence” value (All doses (N = 48), All grades)?
A: 6 (13) n (%)

Q: What about the “TEAE: Hyperglycemia” value (All doses (N = 48), All grades) of the same compound?
A: 7 (15) n (%)

Q: What about the “TEAE: Hyperuricemia” value (All doses (N = 48), All grades) of the same compound?
A: 5 (10) n (%)

Q: What about the “TEAE: Hypokalemia” value (All doses (N = 48), All grades) of the same compound?
A: 6 (13) n (%)

Q: What about the “TEAE: Hypophosphatemia” value (All doses (N = 48), All grades) of the same compound?
A: 6 (13) n (%)

Q: What about the “TEAE: Increased ALP” value (All doses (N = 48), All grades) of the same compound?
A: 8 (17) n (%)

Q: And the “TEAE: Increased ALT” value (All doses (N = 48), All grades)?
A: 6 (13) n (%)

Q: And the “TEAE: Increased AST” value (All doses (N = 48), All grades)?
A: 8 (17) n (%)

Q: And the “TEAE: Nausea” value (All doses (N = 48), All grades)?
A: 19 (40) n (%)

Q: What about the “TEAE: Neutropenia” value (All doses (N = 48), All grades) of the same compound?
A: 8 (17) n (%)

Q: What about the “TEAE: Peripheral edema” value (All doses (N = 48), All grades) of the same compound?
A: 7 (15) n (%)

Q: What about the “TEAE: Pyrexia” value (All doses (N = 48), All grades) of the same compound?
A: 8 (17) n (%)

Q: And the “TEAE: Subjects with any AE” value (All doses (N = 48), All grades)?
A: 47 (98) n (%)

Q: What about the “TEAE: Urinary tract infection” value (All doses (N = 48), All grades) of the same compound?
A: 12 (25) n (%)

Q: And the “TEAE: Vomiting” value (All doses (N = 48), All grades)?
A: 11 (23) n (%)

Q: What about the “TEAE: Weight decreased” value (All doses (N = 48), All grades) of the same compound?
A: 5 (10) n (%)

Q: And the “TEAE: Abdominal distension” value (All doses (N = 48), Grade 3–4)?
A: 0 n (%)

Q: What about the “TEAE: Abdominal pain” value (All doses (N = 48), Grade 3–4) of the same compound?
A: 2 (4) n (%)

Q: What about the “TEAE: Anemia” value (All doses (N = 48), Grade 3–4) of the same compound?
A: 5 (10) n (%)

Q: What about the “TEAE: Asthenia” value (All doses (N = 48), Grade 3–4) of the same compound?
A: 3 (6) n (%)

Q: And the “TEAE: Back pain” value (All doses (N = 48), Grade 3–4)?
A: 3 (6) n (%)

Q: What about the “TEAE: Constipation” value (All doses (N = 48), Grade 3–4) of the same compound?
A: 0 n (%)

Q: And the “TEAE: Cough” value (All doses (N = 48), Grade 3–4)?
A: 0 n (%)

Q: What about the “TEAE: Decreased appetite” value (All doses (N = 48), Grade 3–4) of the same compound?
A: 0 n (%)

Q: And the “TEAE: Dehydration” value (All doses (N = 48), Grade 3–4)?
A: 0 n (%)

Q: What about the “TEAE: Diarrhea” value (All doses (N = 48), Grade 3–4) of the same compound?
A: 0 n (%)

Q: What about the “TEAE: Dyspnea” value (All doses (N = 48), Grade 3–4) of the same compound?
A: 3 (6) n (%)

Q: What about the “TEAE: Fatigue” value (All doses (N = 48), Grade 3–4) of the same compound?
A: 2 (4) n (%)

Q: What about the “TEAE: Flatulence” value (All doses (N = 48), Grade 3–4) of the same compound?
A: 0 n (%)

Q: And the “TEAE: Hyperbilirubinemia” value (All doses (N = 48), Grade 3–4)?
A: 5 (10) n (%)

Q: What about the “TEAE: Hyperglycemia” value (All doses (N = 48), Grade 3–4) of the same compound?
A: 4 (8) n (%)

Q: And the “TEAE: Hyperuricemia” value (All doses (N = 48), Grade 3–4)?
A: 4 (8) n (%)

Q: And the “TEAE: Hypokalemia” value (All doses (N = 48), Grade 3–4)?
A: 2 (4) n (%)

Q: What about the “TEAE: Hypophosphatemia” value (All doses (N = 48), Grade 3–4) of the same compound?
A: 5 (10) n (%)

Q: And the “TEAE: Increased ALP” value (All doses (N = 48), Grade 3–4)?
A: 2 (4) n (%)

Q: What about the “TEAE: Increased AST” value (All doses (N = 48), Grade 3–4) of the same compound?
A: 2 (4) n (%)

Q: And the “TEAE: Nausea” value (All doses (N = 48), Grade 3–4)?
A: 1 (2) n (%)

Q: And the “TEAE: Neutropenia” value (All doses (N = 48), Grade 3–4)?
A: 5 (10) n (%)

Q: What about the “TEAE: Peripheral edema” value (All doses (N = 48), Grade 3–4) of the same compound?
A: 0 n (%)

Q: And the “TEAE: Pyrexia” value (All doses (N = 48), Grade 3–4)?
A: 0 n (%)

Q: What about the “TEAE: Subjects with any AE” value (All doses (N = 48), Grade 3–4) of the same compound?
A: 29 (60) n (%)

Q: And the “TEAE: Urinary tract infection” value (All doses (N = 48), Grade 3–4)?
A: 0 n (%)

Q: And the “TEAE: Weight decreased” value (All doses (N = 48), Grade 3–4)?
A: 0 n (%)

Q: What about the DLT [1] of the same compound?
A: None

Q: What about the “Subjects with DLT in cycle 1” value [1] of the same compound?
A: 0

Q: What about the DLT [2] of the same compound?
A: None

Q: And the “Subjects with DLT in cycle 1” value [2]?
A: 0

Q: What about the DLT [3] of the same compound?
A: None

Q: What about the “Subjects with DLT in cycle 1” value [3] of the same compound?
A: 0

Q: What about the DLT [4] of the same compound?
A: None

Q: What about the “Subjects with DLT in cycle 1” value [4] of the same compound?
A: 0

Q: And the DLT [5]?
A: Hypokalemia, hypocalcemia, hypophosphatemia

Q: What about the “Subjects with DLT in cycle 1” value [5] of the same compound?
A: 1

Q: What about the DLT [6] of the same compound?
A: None

Q: And the “Subjects with DLT in cycle 1” value [6]?
A: 0

Q: What about the DLT [7] of the same compound?
A: Deep vein thrombosis

Q: What about the “Subjects with DLT in cycle 1” value [7] of the same compound?
A: 1

Q: What about the DLT [8] of the same compound?
A: None

Q: What about the “Subjects with DLT in cycle 1” value [8] of the same compound?
A: 0

Q: And the DLT [9]?
A: Septic shock

Q: What about the “Subjects with DLT in cycle 1” value [9] of the same compound?
A: 1

Q: What about the DLT (Dose level 14 mg/m^2, 5 subjects) of the same compound?
A: Orthostatic hypotension (1), elevated uric acid (1)
